Values after ≈ are worked out from the molar mass of the structure shown. Like-named read-outs stand apart in the source and are kept apart here.
Columns and labels:
Type in all cases: cell-based
[1] = system: S. typhimurium IFO 12529; assay: MIC, S. typhimurium IFO 12529; conditions: Salmonella enterica, read-out: MIC
Experimental: (§1) The minimum inhibition concentrations (MIC) of the compounds obtained by the present invention were measured according to the standard method of Japanese Chemotherapy Association.

[2] = system: P. mirabilis IFO3849; assay: MIC, P. mirabilis IFO3849; conditions: Proteus mirabilis, read-out: MIC
Experimental: as §1

[3] = system: S. typhimurium ATCC13311; assay: MIC, S. typhimurium ATCC13311; conditions: Salmonella enterica, read-out: MIC
Experimental: as §1

[4] = system: P. rettgeri ATCC14505; assay: MIC, P. rettgeri ATCC14505; conditions: Providencia rettgeri, read-out: MIC
Experimental: as §1

[5] = system: S. aureus 209P JC-1; assay: MIC, S. aureus 209P JC-1; conditions: Staphylococcus aureus; S. aureus 209P JC-1; read-out: MIC
Experimental: as §1

[6] = system: P. aeruginosa ATCC9721; assay: MIC, P. aeruginosa ATCC9721; conditions: Pseudomonas aeruginosa; P. aeruginosa ATCC9721; read-out: MIC
Experimental: as §1

[7] = system: S. aureus TASAKI; assay: MIC, S. aureus TASAKI; conditions: Staphylococcus aureus
Experimental: as §1

[8] = system: S. paratyphi C 33-76; assay: MIC, S. paratyphi C 33-76; conditions: Salmonella enterica, PARATYPHI
Experimental: as §1

[9] = system: E. coli NIHJ JC-2; assay: MIC, E. coli NIHJ JC-2; conditions: Escherichia coli, NIHJJC2, read-out: MIC
Experimental: as §1

[10] = system: S. flexneri Y NCTC 9730; assay: MIC, S. flexneri Y NCTC 9730; conditions: Shigella flexneri, NCTC9730, read-out: MIC
Experimental: as §1

[11] = system: E. coli ATCC25922; assay: MIC, E. coli ATCC25922; conditions: Escherichia coli, read-out: MIC
Experimental: as §1

[12] = system: S. aureus Smith; assay: MIC, S. aureus Smith; conditions: Staphylococcus aureus, read-out: MIC
Experimental: as §1

[13] = system: S. marcescens IFO12648; assay: MIC, S. marcescens IFO12648; conditions: Serratia marcescens, read-out: MIC
Experimental: as §1

[14] = system: S. paratyphi B; assay: MIC, S. paratyphi B; conditions: Salmonella enterica, PARATYPHI
Experimental: as §1

[15] = system: S. anatum 677-69; assay: MIC, S. anatum 677-69; conditions: Salmonella enterica, 67769, read-out: MIC
Experimental: as §1

[16] = system: S. paratyphi A 144-12-93; assay: MIC, S. paratyphi A 144-12-93; conditions: Salmonella enterica, PARATYPHI
Experimental: as §1

[17] = system: C. freundii IFO12681; assay: MIC, C. freundii IFO12681; conditions: Citrobacter freundii, read-out: MIC
Experimental: as §1

[18] = system: S. epidermidis ATCC14990; assay: MIC, S. epidermidis ATCC14990; conditions: Staphylococcus epidermidis, read-out: MIC
Experimental: as §1

[19] = system: P. vulgaris ATCC6398; assay: MIC, P. vulgaris ATCC6398; conditions: Proteus vulgaris, read-out: MIC
Experimental: as §1

[20] = system: P. cepacia ATCC25416; assay: MIC, P. cepacia ATCC25416; conditions: Burkholderia cepacia, read-out: MIC
Experimental: as §1

[21] = system: K. pneumoniae ATCC27736; assay: MIC, K. pneumoniae ATCC27736; conditions: Klebsiella pneumoniae, read-out: MIC
Experimental: as §1

[22] = system: B. subtilis ATCC6633; assay: MIC, B. subtilis ATCC6633; conditions: Bacillus subtilis; B. subtilis ATCC6633; read-out: MIC
Experimental: as §1

[23] = system: S. sonnei SH72-415; assay: MIC, S. sonnei SH72-415; conditions: Shigella sonnei, SH72415, read-out: MIC
Experimental: as §1

[24] = system: S. aureus ATCC25923; assay: MIC, S. aureus ATCC25923; conditions: Staphylococcus aureus; S. aureus ATCC25923; read-out: MIC
Experimental: as §1

[25] = system: S. flexneri 2a CDC 4807-62; assay: MIC, S. flexneri 2a CDC 4807-62; conditions: Shigella flexneri, read-out: MIC
Experimental: as §1

[26] = system: S. typhi 1099-77; assay: MIC, S. typhi 1099-77; conditions: Salmonella enterica
Experimental: as §1

[27] = system: S. newport 563; assay: MIC, S. newport 563; conditions: Salmonella enterica, read-out: MIC
Experimental: as §1

[28] = system: P. fluorescens ATCC13525; assay: MIC, P. fluorescens ATCC13525; conditions: Pseudomonas fluorescens, read-out: MIC
Experimental: as §1

[29] = system: S. faecalis IFO3826; assay: MIC, S. faecalis IFO3826; conditions: Enterococcus faecalis, read-out: MIC
Experimental: as §1

[30] = system: S. boyadii CDC 2064-59; assay: MIC, S. boyadii CDC 2064-59
Experimental: as §1

[31] = system: E. cloacae ATCC13047; assay: MIC, E. cloacae ATCC13047; conditions: Enterobacter cloacae
Experimental: as §1

[32] = system: P. vulgaris ATCC6380; assay: MIC, P. vulgaris ATCC6380; conditions: Proteus vulgaris, read-out: MIC
Experimental: as §1

[33] = system: S. dysenteriae 4379-60; assay: MIC, S. dysenteriae 4379-60; conditions: Shigella dysenteriae, 437960
Experimental: as §1

[34] = system: P. putida ATCC12633; assay: MIC, P. putida ATCC12633; conditions: Pseudomonas putida
Experimental: as §1

[35] = system: P. maltophilia ATCC13637; assay: MIC, P. maltophilia ATCC13637; conditions: Stenotrophomonas maltophilia
Experimental: as §1

[36] = system: P. morganii GN5407; assay: MIC, P. morganii GN5407; conditions: Morganella morganii
Experimental: as §1

[37] = system: E. coli W3630/Rms212; assay: MIC, E. coli W3630/Rms212; conditions: Escherichia coli
Experimental: as §1

[38] = system: E. coli W3630/Rms213; assay: MIC, E. coli W3630/Rms213; conditions: Escherichia coli
Experimental: as §1

[39] = system: P. rettgeri GN4430; assay: MIC, P. rettgeri GN4430; conditions: Providencia rettgeri
Experimental: as §1

[40] = system: E. coli W3630/Rte16; assay: MIC, E. coli W3630/Rte16; conditions: Escherichia coli
Experimental: as §1

[41] = system: S. marcescens GN10851; assay: MIC, S. marcescens GN10851; conditions: Serratia marcescens
Experimental: as §1

[42] = system: C. freundii GN7391; assay: MIC, C. freundii GN7391; conditions: Citrobacter freundii
Experimental: as §1

[43] = system: E. cloacae GN7471; assay: MIC, E. cloacae GN7471; conditions: Enterobacter cloacae
Experimental: as §1

[44] = system: E. Coli GN5482; assay: MIC, E. Coli GN5482; conditions: Escherichia coli
Experimental: as §1

[45] = system: P. aeruginosa GN10; assay: MIC, P. aeruginosa GN10; conditions: Pseudomonas aeruginosa
Experimental: as §1

[46] = system: P. vulgaris GN7919; assay: MIC, P. vulgaris GN7919; conditions: Proteus vulgaris
Experimental: as §1

Compound `Cc1nnc(SCC2=C(C(=O)O)N3C(=O)C(NC(=O)C(=NOCC(=O)NNC(=O)c4ccc(O)c(O)c4)c4csc(N)n4)C3SC2)s1` (stereo not drawn) [Example 59] has an MIC [1] of 0.1 µg/mL (≈ 0.139 µM), an MIC [2] of 0.39 µg/mL (≈ 0.54 µM) and an MIC [3] of 0.1 µg/mL (≈ 0.139 µM). The MIC [4] was 0.78 µg/mL (≈ 1.08 µM), the MIC [5] was 0.39 µg/mL (≈ 0.54 µM) and the MIC [6] was 0.1 µg/mL (≈ 0.139 µM). For the same compound, the MIC ([7]; S. aureus TASAKI, standard method of Japanese Chemotherapy Association, read-out: MIC) was 1.56 µg/mL (≈ 2.16 µM), the MIC [8] was 0.012 µg/mL (≈ 0.0166 µM) and the MIC [9] was 0.39 µg/mL (≈ 0.54 µM). It also gave an MIC [10] of 0.78 µg/mL (≈ 1.08 µM), an MIC [11] of 0.1 µg/mL (≈ 0.139 µM) and an MIC [12] of 0.78 µg/mL (≈ 1.08 µM). It also gave an MIC [13] of 0.39 µg/mL (≈ 0.54 µM), an MIC [14] of 0.012 µg/mL (≈ 0.0166 µM) and an MIC [15] of 0.025 µg/mL (≈ 0.0346 µM). The MIC [16] was 0.025 µg/mL (≈ 0.0346 µM), the MIC [17] was 0.78 µg/mL (≈ 1.08 µM) and the MIC [18] was 0.39 µg/mL (≈ 0.54 µM). The MIC [19] was 0.05 µg/mL (≈ 0.0693 µM), the MIC [20] was 0.39 µg/mL (≈ 0.54 µM) and the MIC [21] was 0.012 µg/mL (≈ 0.0166 µM). It also gave an MIC [22] of 0.39 µg/mL (≈ 0.54 µM), an MIC [23] of 0.05 µg/mL (≈ 0.0693 µM) and an MIC [24] of 0.78 µg/mL (≈ 1.08 µM). It also gave an MIC [25] of 0.2 µg/mL (≈ 0.277 µM), an MIC ([26]; TYPHI) of at most 0.006 µg/mL and an MIC [27] of 0.05 µg/mL (≈ 0.0693 µM). The MIC [28] was 12.5 µg/mL (≈ 17.3 µM), the MIC [29] was over 100 µg/mL and the MIC [30] was 0.39 µg/mL (≈ 0.54 µM). It also gave an MIC [31] of 1.56 µg/mL (≈ 2.16 µM), an MIC [32] of 0.39 µg/mL (≈ 0.54 µM) and an MIC [33] of 0.05 µg/mL (≈ 0.0693 µM). The MIC [34] was 0.78 µg/mL (≈ 1.08 µM) and the MIC [35] was 0.78 µg/mL (≈ 1.08 µM).

Compound `CC(=O)Oc1cc(OC(C)=O)cc(C(=O)NNC(=O)NC(C(=O)NC2C(=O)N3C(C(=O)O)=C(CSc4nncs4)CSC23)c2csc(N)n2)c1` (stereo not drawn) [Example 118] has an MIC [36] of 0.78 µg/mL (≈ 1.02 µM), an MIC [37] of 0.39 µg/mL (≈ 0.511 µM) and an MIC [38] of 0.2 µg/mL (≈ 0.262 µM). The MIC [39] was 0.39 µg/mL (≈ 0.511 µM), the MIC [40] was 0.39 µg/mL (≈ 0.511 µM) and the MIC [41] was 100 µg/mL (≈ 131 µM). The MIC [42] was over 100 µg/mL, the MIC [43] was 6.25 µg/mL (≈ 8.18 µM) and the MIC [44] was 1.56 µg/mL (≈ 2.04 µM). For the same compound, the MIC [45] was 6.25 µg/mL (≈ 8.18 µM) and the MIC [46] was 100 µg/mL (≈ 131 µM).

Compound `CO/N=C(\C(=O)N[C@@H]1C(=O)N2C(C(=O)O)=C(COC(C)=O)CS[C@H]12)c1csc(N)n1` [CTX, cephotaxim] has an MIC [1] of 0.2 µg/mL (≈ 0.439 µM), an MIC [2] of 0.05 µg/mL (≈ 0.11 µM) and an MIC [3] of 0.05 µg/mL (≈ 0.11 µM). It also gave an MIC [4] of 0.1 µg/mL (≈ 0.22 µM), an MIC [5] of 0.39 µg/mL (≈ 0.856 µM) and an MIC [6] of 3.13 µg/mL (≈ 6.87 µM). It also gave an MIC [7] of 1.56 µg/mL (≈ 3.43 µM), an MIC [8] of at most 0.006 µg/mL and an MIC [9] of 0.1 µg/mL (≈ 0.22 µM). The MIC [10] was 0.05 µg/mL (≈ 0.11 µM), the MIC [11] was 0.1 µg/mL (≈ 0.22 µM) and the MIC [12] was 3.13 µg/mL (≈ 6.87 µM). The MIC [13] was 0.2 µg/mL (≈ 0.439 µM), the MIC [14] was 0.1 µg/mL (≈ 0.22 µM) and the MIC [15] was 0.1 µg/mL (≈ 0.22 µM). For the same compound, the MIC [16] was 0.2 µg/mL (≈ 0.439 µM), the MIC [17] was 0.1 µg/mL (≈ 0.22 µM) and the MIC [18] was 0.78 µg/mL (≈ 1.71 µM). It also gave an MIC [19] of at most 0.006 µg/mL, an MIC [20] of 0.78 µg/mL (≈ 1.71 µM) and an MIC [21] of 0.1 µg/mL (≈ 0.22 µM). It also gave an MIC [22] of 0.39 µg/mL (≈ 0.856 µM), an MIC [23] of 0.05 µg/mL (≈ 0.11 µM) and an MIC [24] of 0.78 µg/mL (≈ 1.71 µM). It also gave an MIC [25] of 0.025 µg/mL (≈ 0.0549 µM), an MIC ([26]; S. typhi 1099-77, read-out: MIC) of 0.1 µg/mL (≈ 0.22 µM) and an MIC [27] of 0.1 µg/mL (≈ 0.22 µM). For the same compound, the MIC [28] was 25 µg/mL (≈ 54.9 µM), the MIC [29] was over 100 µg/mL and the MIC [30] was 0.39 µg/mL (≈ 0.856 µM). The MIC [31] was 3.13 µg/mL (≈ 6.87 µM), the MIC [32] was 0.05 µg/mL (≈ 0.11 µM) and the MIC [33] was 0.012 µg/mL (≈ 0.0263 µM). It also gave an MIC [34] of 50 µg/mL (≈ 110 µM) and an MIC [35] of 50 µg/mL (≈ 110 µM).
